Measured values as given in ChEMBL document CHEMBL5230142, “Natural spirocyclic alkaloids and polyphenols as multi target dementia leads” (Bioorg Med Chem, 2021).

Assays:
[1] = Oral bioavailability in RN rat at 20 mg/kg; assay type: ADME, organism-based; settings: in vivo
[2] = Drug metabolism in RN rat assessed as epimerization ratio at 20 mg/kg, po; assay type: ADME, organism-based; settings: in vivo, read-out: Drug metabolism
[3] = molecular target: Amyloid-beta precursor protein (Homo sapiens) (UniProt P05067); assay: Inhibition of amyloid beta (unknown origin) fibril formation at 20 uM incubated for 7 days by ThT fluorescence assay relative to control; settings: time 7.0 day
[4] = molecular target: Amyloid-beta precursor protein (Homo sapiens) (UniProt P05067); assay: Inhibition of amyloid beta (unknown origin) assessed as reduction in fibril disaggregation at 20 uM incubated for 7 days by ThT fluorescence assay relative to control; settings: time 7.0 day
[5] = Cmax in mouse plasma at 250 mg/kg, po measured after 24 hrs; assay type: ADME, organism-based; design: dose 250 mg/kg, time 24 hrs, route po
VSMC [6] = assay: Cytotoxicity against rat VSMC cells assessed as reduction in cell viability at 5 uM measured after 4 days; assay type: toxicity, cell-based; settings: 96 h, time 4 day
VSMC [7] = assay: Cytotoxicity against rat VSMC cells assessed as reduction in cell viability at 20 uM measured after 4 days; assay type: toxicity, cell-based; settings: 96 h, time 4 day
VSMC [8] = assay: Cytotoxicity against rat VSMC cells assessed as reduction in cell viability at 50 uM measured after 4 days; assay type: toxicity, cell-based; settings: 96 h, time 4 day
SH-SY5Y [9] = assay: Neuroprotective activity in human SH-SY5Y cells assessed as prevention of glyceraldehyde-induced neurite shortening at 1 uM incubated for 72 hrs by microsocopic analysis; assay type: functional
[10] = molecular target: Melatonin receptor type 1A (Homo sapiens, UniProt P48039); assay: Agonist activity at human melatonin MT1 receptor stably expressing in human HEK293 cells; assay type: cell-based
[11] = molecular target: T1, Melatonin receptor type 1B (Homo sapiens, UniProt P49286); assay: Agonist activity at human melatonin MT2 receptor stably expressing in human HEK293 cells; assay type: cell-based
T1 sequence (P49286 whole entry): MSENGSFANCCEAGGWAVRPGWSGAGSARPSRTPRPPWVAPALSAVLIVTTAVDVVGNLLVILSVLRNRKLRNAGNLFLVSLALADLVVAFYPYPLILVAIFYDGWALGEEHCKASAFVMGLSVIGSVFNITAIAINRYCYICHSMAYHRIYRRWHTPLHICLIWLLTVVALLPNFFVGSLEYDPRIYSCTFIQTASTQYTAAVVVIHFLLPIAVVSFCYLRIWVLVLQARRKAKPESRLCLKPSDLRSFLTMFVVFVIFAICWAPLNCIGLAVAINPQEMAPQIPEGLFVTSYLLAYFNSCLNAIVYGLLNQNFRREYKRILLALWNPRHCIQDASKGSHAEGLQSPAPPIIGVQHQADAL

[12] = molecular target: T2, 5-hydroxytryptamine receptor 1A (Homo sapiens, UniProt P08908); assay: Agonist activity at 5HT1A (unknown origin) receptor
T2 sequence (P08908 whole entry): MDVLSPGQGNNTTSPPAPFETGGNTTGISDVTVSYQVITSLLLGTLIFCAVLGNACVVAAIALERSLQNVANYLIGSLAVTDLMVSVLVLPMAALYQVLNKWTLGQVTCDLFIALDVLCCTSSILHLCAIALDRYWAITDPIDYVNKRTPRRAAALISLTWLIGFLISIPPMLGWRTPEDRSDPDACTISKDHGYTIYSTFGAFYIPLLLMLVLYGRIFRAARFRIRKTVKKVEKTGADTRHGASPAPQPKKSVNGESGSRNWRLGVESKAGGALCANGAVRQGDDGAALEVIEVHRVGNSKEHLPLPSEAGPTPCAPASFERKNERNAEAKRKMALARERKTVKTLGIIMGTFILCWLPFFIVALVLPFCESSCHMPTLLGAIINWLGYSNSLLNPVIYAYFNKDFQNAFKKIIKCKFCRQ

SH-SY5Y [13] = assay: Neuroprotective activity in human SH-SY5Y cells assessed as prevention of glyceraldehyde-induced neurite shortening at 10 uM incubated for 72 hrs by microsocopic analysis; assay type: functional
Acetylcholinesterase [14] = molecular target: T3, Acetylcholinesterase (Homo sapiens, UniProt P22303); assay: Inhibition of AChE (unknown origin) using acetylthiocholine iodide as substrate preincubated for 20 mins by DTNB reagent based Ellman's method
Acetylcholinesterase [15] = molecular target: T3, Acetylcholinesterase; assay: Inhibition of human recombinant AChE using acetylthiocholine chloride as substrate incubated for 20 mins by DTNB reagent based Ellman's method
Gamma-secretase = assay: Inhibition of gamma-secretase (unknown origin); assay type: protein-complex assay, Homo sapiens
[16] = molecular target: Gamma-secretase (Homo sapiens) (UniProt Q96BI3+Q9NZ42+Q8WW43+P49768+Q92542+P49810); assay: Binding affinity to his-tagged gamma-secretase (unknown origin) assessed as equilibrium constant by surface plasmon resonance analysis; assay type: protein-complex assay
[17] = molecular target: Amyloid-beta precursor protein (Homo sapiens) (UniProt P05067); assay: Inhibition of amyloid beta (unknown origin) at 10 uM relative to control
Beta-secretase 1 = Beta-secretase 1 (Homo sapiens, UniProt P56817); assay: Inhibition of human BACE1 (1 to 454 residues) using APP harboring Swedish Lys/Met mutant-derived peptide as substrate by FRET assay
Sequence of Beta-secretase 1 (P56817 whole entry, the tested form may be a part): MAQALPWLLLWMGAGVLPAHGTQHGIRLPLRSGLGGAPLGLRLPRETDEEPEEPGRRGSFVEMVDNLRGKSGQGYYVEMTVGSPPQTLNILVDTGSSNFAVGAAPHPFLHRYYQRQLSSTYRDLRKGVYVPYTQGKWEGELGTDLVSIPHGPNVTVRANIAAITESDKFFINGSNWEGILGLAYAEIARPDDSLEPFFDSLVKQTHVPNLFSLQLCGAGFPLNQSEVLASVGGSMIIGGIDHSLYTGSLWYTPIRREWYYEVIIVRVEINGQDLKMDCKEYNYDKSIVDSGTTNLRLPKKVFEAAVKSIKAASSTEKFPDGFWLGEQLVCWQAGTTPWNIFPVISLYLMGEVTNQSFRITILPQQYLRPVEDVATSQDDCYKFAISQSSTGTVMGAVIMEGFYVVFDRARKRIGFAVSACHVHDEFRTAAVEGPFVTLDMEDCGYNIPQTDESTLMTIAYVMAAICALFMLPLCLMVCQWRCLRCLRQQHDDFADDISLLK

Sequence of Amyloid-beta precursor protein (Homo sapiens) (P05067 whole entry, the tested form may be a part): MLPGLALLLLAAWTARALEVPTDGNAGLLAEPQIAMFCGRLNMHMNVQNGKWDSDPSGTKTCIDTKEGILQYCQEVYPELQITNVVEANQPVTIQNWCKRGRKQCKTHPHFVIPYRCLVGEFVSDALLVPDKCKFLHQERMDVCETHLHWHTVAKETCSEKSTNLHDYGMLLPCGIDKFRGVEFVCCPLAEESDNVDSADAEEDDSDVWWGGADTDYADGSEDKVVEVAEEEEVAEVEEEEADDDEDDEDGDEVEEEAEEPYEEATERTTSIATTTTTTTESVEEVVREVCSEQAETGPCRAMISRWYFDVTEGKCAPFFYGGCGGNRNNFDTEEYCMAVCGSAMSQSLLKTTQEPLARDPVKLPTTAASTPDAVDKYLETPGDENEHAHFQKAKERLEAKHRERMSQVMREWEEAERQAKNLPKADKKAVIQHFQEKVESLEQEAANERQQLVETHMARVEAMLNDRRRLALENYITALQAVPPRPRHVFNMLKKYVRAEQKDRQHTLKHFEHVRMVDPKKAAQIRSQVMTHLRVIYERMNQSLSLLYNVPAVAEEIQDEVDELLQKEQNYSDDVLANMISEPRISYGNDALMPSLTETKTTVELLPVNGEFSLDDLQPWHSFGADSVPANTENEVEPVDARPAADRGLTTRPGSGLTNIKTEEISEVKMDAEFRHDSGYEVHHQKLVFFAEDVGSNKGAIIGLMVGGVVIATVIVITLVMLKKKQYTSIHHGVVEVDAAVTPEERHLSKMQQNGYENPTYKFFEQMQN
T3 sequence (P22303 whole entry): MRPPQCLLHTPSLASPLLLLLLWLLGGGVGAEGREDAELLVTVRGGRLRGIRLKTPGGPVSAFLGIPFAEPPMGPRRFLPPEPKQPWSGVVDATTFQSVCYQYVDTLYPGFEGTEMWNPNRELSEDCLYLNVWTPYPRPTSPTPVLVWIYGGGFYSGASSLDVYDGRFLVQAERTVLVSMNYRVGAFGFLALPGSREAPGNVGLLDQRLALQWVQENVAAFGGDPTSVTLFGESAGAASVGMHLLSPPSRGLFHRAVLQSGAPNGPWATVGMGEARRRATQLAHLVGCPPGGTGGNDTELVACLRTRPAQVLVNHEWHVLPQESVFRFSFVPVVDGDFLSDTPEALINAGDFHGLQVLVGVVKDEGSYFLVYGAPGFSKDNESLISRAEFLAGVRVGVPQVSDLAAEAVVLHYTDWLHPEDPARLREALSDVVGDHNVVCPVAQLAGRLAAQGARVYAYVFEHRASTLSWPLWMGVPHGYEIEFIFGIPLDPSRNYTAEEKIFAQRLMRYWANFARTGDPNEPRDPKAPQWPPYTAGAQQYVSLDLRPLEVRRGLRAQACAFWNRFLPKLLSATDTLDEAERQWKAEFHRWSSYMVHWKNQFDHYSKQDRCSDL
Sequence of Melatonin receptor type 1A (P48039 whole entry): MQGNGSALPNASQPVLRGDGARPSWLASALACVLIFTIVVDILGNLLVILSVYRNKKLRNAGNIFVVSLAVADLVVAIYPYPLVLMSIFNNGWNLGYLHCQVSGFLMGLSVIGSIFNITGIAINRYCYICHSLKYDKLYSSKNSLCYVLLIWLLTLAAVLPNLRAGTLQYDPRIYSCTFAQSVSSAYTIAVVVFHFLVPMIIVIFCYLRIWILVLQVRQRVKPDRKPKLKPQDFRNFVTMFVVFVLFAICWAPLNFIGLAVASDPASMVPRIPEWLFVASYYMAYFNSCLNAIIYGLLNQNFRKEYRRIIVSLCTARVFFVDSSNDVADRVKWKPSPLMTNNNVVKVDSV

In the case of `CC[C@H]1CN2CC[C@@]3(C(=O)Nc4ccccc43)[C@@H]2C[C@@H]1/C(=C\OC)C(=O)OC` [ISORHYNCHOPHYLLINE], the bioavailability [1] is reported as 3.3% and the metabolised [2] is reported as 22%.

Work on `Oc1cc(O)c2c(c1)O[C@H](c1ccc(O)c(O)c1)[C@H](O)[C@H]2c1c(O)cc(O)c2c1O[C@H](c1ccc(O)c(O)c1)[C@H](O)C2` [PROCYANIDIN B2] yielded an inhibition [3] of 94%, an inhibition [4] of 63% and a Cmax [5] of 160 nM.

With `CC[C@H]1CN2CC[C@]3(C(=O)Nc4ccccc43)C2C[C@@H]1/C(=C\OC)C(=O)OC` (stereo partly drawn) the Activity (VSMC [6]) was 25%, the Activity (VSMC [7]) was 63% and the Activity (VSMC [8]) was 88%.

Work on `COC(=O)[C@H]1C(=O)N2CC[C@]3(C(=O)Nc4ccccc43)[C@H]2C[C@@H]1c1ccc(-c2ccc(Cl)c(Cl)c2)o1` yielded an Activity (SH-SY5Y [9]) of 42%.

`Oc1cc(O)c2c(c1)O[C@H](c1ccc(O)c(O)c1)[C@@H](O)C2` [CIANIDANOL] gave an IC50 [10] of 25.8 µM and an IC50 [11] of 47.3 µM.

Work on `CC[C@H]1CN2CC[C@]3(C(=O)Nc4ccccc43)[C@@H]2C[C@@H]1/C(=C\OC)C(=O)OC` [RHYNCHOPHYLLINE] yielded an EC50 [12] of 45.3 µM, a bioavailability [1] of 25.9% and a metabolised [2] of 22%.

For `COC(=O)[C@@H]1C(=O)N2CC[C@@]3(C(=O)Nc4ccccc43)[C@@H]2C[C@H]1c1ccc(-c2ccc(Cl)c(Cl)c2)o1`, the Activity (SH-SY5Y [13]) was 61%.

In the case of `COC(=O)[C@@H]1C(=O)N2CC[C@@]3(C(=O)Nc4ccccc43)[C@@H]2C[C@H]1c1ccc(-c2cccc(Cl)c2)o1`, the Activity (SH-SY5Y [13]) is reported as 20%.

`COC(=O)[C@H]1C(=O)N2CC[C@]3(C(=O)Nc4ccccc43)[C@H]2C[C@@H]1c1ccc(-c2cccc(Cl)c2)o1` showed an Activity (SH-SY5Y [13]) of 47%.

For `C/C=C1/CN2CCc3c([nH]c4ccccc34)[C@@H]2CC1/C(=C\C(=O)OC)OC` (stereo partly drawn), the IC50 (Acetylcholinesterase [14]) was 3.7 µM and the IC50 (Acetylcholinesterase [15]) was 10.1 µM.

`CC(C)[C@@]1(NC(=O)[C@@H]2C[C@@H]3c4cccc5[nH]cc(c45)C[C@H]3N(C)C2)O[C@@]2(O)[C@@H]3CCCN3C(=O)[C@H](Cc3ccccc3)N2C1=O` [DIHYDROERGOCRISTINE] gave an IC50 (Gamma-secretase) of 25 µM, a Ke [16] of 9.8 µM and an inhibition [17] of 30%.

In the case of `CC#Cc1cncc(-c2ccc3c(c2)[C@@]2(CO3)N=C(N)C[C@H]2C(F)(F)F)c1`, the IC50 (Beta-secretase 1) is reported as 0.115 µM.
